ChEMBL document CHEMBL4680099, “Discovery of Leucyladenylate Sulfamates as Novel Leucyl-tRNA Synthetase (LRS)-Targeted Mammalian Target of Rapamycin Complex 1 (mTORC1) Inhibitors” (J Med Chem, 2016)
pIC50: −log10 of the molar value. Activity calls are given as the source filed them. The calls are words filed in the database; no cut-off is given here.

Columns and labels:
[1] = test system: MDA-MB-231; assay: Cytotoxicity in human MDA-MB-231 cells by sulforhodamine B colorimetric assay; assay type: functional, cell-based
[2] = test system: SK-HEP1; assay: Cytotoxicity in human SK-HEP1 cells by sulforhodamine B colorimetric assay; assay type: functional, cell-based
[3] = test system: A549; assay: Cytotoxicity in human A549 cells by sulforhodamine B colorimetric assay; assay type: functional, cell-based
[4] = test system: HCT-116; assay: Cytotoxicity in human HCT-116 cells by sulforhodamine B colorimetric assay; assay type: functional, cell-based
[5] = test system: K562; assay: Cytotoxicity in human K562 cells by sulforhodamine B colorimetric assay; assay type: functional, cell-based
[6] = test system: SNU-638; assay: Cytotoxicity in human SNU-638 cells by sulforhodamine B colorimetric assay; assay type: functional, cell-based
[7] = target: T1, Leucine--tRNA ligase, cytoplasmic (Homo sapiens, UniProt Q9P2J5); assay: Inhibition of catalytic activity of LRS (unknown origin) by aminoleucylation assay
Target sequence in this assay (Q9P2J5 whole entry): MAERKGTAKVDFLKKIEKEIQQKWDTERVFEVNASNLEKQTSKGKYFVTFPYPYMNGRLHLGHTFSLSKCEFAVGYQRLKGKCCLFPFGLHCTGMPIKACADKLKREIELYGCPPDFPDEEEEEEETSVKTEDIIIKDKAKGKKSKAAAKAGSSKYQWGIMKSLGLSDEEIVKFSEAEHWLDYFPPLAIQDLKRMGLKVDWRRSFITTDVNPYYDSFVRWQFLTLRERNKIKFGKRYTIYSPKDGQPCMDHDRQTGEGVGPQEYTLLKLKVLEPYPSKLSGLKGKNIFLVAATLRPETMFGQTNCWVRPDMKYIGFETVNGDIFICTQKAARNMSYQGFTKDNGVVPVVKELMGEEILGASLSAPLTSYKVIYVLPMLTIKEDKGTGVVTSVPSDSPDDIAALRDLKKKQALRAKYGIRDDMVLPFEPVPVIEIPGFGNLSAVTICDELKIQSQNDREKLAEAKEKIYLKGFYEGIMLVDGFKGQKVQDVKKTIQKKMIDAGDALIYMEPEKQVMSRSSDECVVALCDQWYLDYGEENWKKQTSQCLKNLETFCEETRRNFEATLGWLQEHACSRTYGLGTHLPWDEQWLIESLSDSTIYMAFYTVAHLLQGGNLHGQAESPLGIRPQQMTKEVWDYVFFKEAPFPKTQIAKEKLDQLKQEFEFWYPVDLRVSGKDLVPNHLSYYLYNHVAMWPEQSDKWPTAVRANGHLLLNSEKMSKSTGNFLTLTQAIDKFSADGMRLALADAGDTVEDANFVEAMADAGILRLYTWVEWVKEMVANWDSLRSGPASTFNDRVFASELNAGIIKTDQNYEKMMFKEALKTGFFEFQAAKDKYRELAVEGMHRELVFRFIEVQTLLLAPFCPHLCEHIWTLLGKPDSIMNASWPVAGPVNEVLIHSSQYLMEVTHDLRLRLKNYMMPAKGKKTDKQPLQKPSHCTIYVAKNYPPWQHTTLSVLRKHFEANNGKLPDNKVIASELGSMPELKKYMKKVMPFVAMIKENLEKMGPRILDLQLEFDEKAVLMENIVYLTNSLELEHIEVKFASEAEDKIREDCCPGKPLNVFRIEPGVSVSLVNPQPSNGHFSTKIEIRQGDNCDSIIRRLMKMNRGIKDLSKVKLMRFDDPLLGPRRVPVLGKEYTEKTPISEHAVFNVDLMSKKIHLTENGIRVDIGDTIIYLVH

[8] = target: T1, Leucine--tRNA ligase, cytoplasmic; assay: Inhibition of catalytic activity of LRS in HEK293 cells assessed as reduction in mTORC1 activation by measuring leucine-induced S6K phosphorylation at 12.5 to 200 uM by immunoblotting analysis; assay type: cell-based; conditions: dose 12.5-200 µM
Target sequence in this assay (Q9P2J5 whole entry, looked up): as the sequence (Q9P2J5 whole entry) above

[9] = test system: MRC5; assay: Cytotoxicity in human MRC5 cells by sulforhodamine B colorimetric assay; assay type: cell-based
[10] = target: T2, mTORC1 (Homo sapiens) (UniProt P42345+Q8N122+Q9BVC4); assay: Inhibition of flag-tagged mTORC1 (unknown origin) at 200 uM; assay type: protein-complex assay
[11] = target: T2, mTORC1 (Homo sapiens); conditions: HEK293, dose 100.0 nM
Description: Inhibition of mTORC1 activation in HEK293 cells assessed as reduction leucine-induced S6K phosphorylation at 100 nM by immunoblotting analysis

T2 sequence (Q8N122 whole entry, looked up, other chains not shown): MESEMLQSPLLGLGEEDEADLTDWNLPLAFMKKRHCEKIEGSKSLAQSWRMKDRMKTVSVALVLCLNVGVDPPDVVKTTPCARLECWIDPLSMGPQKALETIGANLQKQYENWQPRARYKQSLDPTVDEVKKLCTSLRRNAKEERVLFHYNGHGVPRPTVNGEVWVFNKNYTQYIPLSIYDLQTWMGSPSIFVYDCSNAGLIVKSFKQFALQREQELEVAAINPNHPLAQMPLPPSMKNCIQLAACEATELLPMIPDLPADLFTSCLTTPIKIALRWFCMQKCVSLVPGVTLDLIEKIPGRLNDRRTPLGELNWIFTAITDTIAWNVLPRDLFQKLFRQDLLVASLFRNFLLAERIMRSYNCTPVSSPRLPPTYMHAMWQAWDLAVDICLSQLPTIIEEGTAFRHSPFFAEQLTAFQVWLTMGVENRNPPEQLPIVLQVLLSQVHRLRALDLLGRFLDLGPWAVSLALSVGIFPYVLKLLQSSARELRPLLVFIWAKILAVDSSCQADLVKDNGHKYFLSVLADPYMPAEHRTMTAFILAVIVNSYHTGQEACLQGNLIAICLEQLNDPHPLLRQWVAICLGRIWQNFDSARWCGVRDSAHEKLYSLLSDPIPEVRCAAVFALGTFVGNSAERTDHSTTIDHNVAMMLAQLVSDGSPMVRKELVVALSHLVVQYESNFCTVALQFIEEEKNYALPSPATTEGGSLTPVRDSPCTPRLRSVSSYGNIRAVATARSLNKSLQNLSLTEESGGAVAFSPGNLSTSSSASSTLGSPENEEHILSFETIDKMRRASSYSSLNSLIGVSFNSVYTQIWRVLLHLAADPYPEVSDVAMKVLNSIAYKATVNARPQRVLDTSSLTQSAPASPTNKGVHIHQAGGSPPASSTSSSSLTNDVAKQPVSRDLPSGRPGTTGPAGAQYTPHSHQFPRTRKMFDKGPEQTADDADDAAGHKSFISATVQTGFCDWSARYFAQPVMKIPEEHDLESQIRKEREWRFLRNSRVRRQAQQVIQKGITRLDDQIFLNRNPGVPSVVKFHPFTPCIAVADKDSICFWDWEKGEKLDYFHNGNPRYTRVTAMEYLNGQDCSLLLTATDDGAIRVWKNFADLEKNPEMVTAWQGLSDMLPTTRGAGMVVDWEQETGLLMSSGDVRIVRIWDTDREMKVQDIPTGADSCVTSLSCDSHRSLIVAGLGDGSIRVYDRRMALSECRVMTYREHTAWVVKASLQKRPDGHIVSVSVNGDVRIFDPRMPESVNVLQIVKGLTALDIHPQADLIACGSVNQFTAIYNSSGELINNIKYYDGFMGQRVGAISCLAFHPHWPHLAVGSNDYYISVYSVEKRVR
T2 sequence (Q9BVC4 whole entry, looked up, other chains not shown): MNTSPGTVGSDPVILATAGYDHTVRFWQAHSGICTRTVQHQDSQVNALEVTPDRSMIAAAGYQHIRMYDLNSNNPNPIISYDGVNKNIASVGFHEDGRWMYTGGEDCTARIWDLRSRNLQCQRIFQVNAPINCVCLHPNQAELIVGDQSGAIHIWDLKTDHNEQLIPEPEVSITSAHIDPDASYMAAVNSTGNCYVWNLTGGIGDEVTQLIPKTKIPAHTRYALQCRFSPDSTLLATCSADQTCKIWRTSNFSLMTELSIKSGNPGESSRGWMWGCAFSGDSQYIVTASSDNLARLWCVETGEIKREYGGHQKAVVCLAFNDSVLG

Row | Compound | pIC50 [7] | inhibition [8] | inhibition [10] | inhibition [11] | pIC50 [1] | pIC50 [2] | pIC50 [3] | pIC50 [4] | pIC50 [5] | pIC50 [6] | pIC50 [9]
1 | COc1cc([C@@H]2c3cc4c(cc3[C@@H](O[C@@H]3O[C@@H]5CO[C@@H](C)O[C@H]5[C@H](O)[C@H]3O)[C@H]3COC(=O)[C@H]23)OCO4)cc(OC)c1O [ETOPOSIDE] |  |  |  |  | 5.13 | 6.60 | 6.62 | 5.90 | 5.75 | 6.25 | 
2 | CC(C)C[C@H](O)C(=O)NS(=O)(=O)OC[C@H]1O[C@@H](n2cnc3c(N)nc(I)nc32)[C@H](O)[C@@H]1O | 6.47 | Dose-dependent effect | inactive |  | 4.90 | 5.25 | 5.76 | 6.27 | 5.97 | 5.24 | < 4.30

Now from value to molecule, other results behind:

Row | pIC50 [7] | inhibition [8] | inhibition [10] | inhibition [11] | Compound | pIC50 [1] | pIC50 [2] | pIC50 [3] | pIC50 [4] | pIC50 [5] | pIC50 [6] | pIC50 [9]
3 | 7.15 | Dose-dependent effect | inactive |  | CC(C)[C@@H](O)[C@H](O)C(=O)NS(=O)(=O)OC[C@H]1O[C@@H](n2cnc3c(N)ncnc32)[C@H](O)[C@@H]1O | 5.15 | 5.17 | 5.79 | 5.84 | 5.65 | 5.05 | < 4.30
4 | 7.65 | inactive |  |  | CC(C)C[C@H](N)C(=O)NS(=O)(=O)OC[C@H]1O[C@@H](n2cnc3c(N)ncnc32)[C@H](O)[C@@H]1O [LEUSA] | 6.14 | 6.27 | 6.23 | 6.62 | 6.40 | 6.08 | 5.23
5 |  |  |  | Active | CO[C@H]1C[C@@H]2CC[C@@H](C)[C@@](O)(O2)C(=O)C(=O)N2CCCC[C@H]2C(=O)O[C@H]([C@H](C)C[C@@H]2CC[C@@H](O)[C@H](OC)C2)CC(=O)[C@H](C)/C=C(\C)[C@@H](O)[C@@H](OC)C(=O)[C@H](C)C[C@H](C)/C=C/C=C/C=C/1C |  |  |  |  |  |  | 
